Measured values published in ChEMBL document CHEMBL3885861, “Open TG-GATES”.

Organism: Rattus norvegicus
Assay: Open TG-GATES - Regimen: Daily Repeat
Assay type: toxicity, organism-based, Sprague-Dawley
Design: regimen Daily Repeat, gender Male, age 6 weeks
Conditions: in vivo, po, 200 mg/kg, route gavage, dose level High; for Bas / Eos / Fbg / Hb / Ht / Lym / MCH / MCHC / MCV / Mono / PT / Plat / RBC / Ret / WBC / APTT: tissue Blood; for KIDNEY_L / KIDNEY_R / KIDNEY_TOTAL: tissue Kidney; for ALP / ALT / AST / BUN / CRE / DBIL / GLC / IP / K / LDH / Na / PL / RALB / TBIL / TC / TG / TP / gamma-GTP / Ca: tissue Plasma

CC(C)Cc1ccc(C(C)C(=O)O)cc1 (stereo not drawn) [IBUPROFEN]
Bas (72 h, time 3 day): 0%
Eos (72 h, time 3 day): 1%
Fbg (72 h, time 3 day): 465.4 mg/dL
Hb (72 h, time 3 day): 9.9 g/dL
Ht (72 h, time 3 day): 29.9%
Lym (72 h, time 3 day): 66.2%
MCH (72 h, time 3 day): 21.1 pg
MCHC (72 h, time 3 day): 33.2%
MCV (72 h, time 3 day): 63.7 fL
Mono (72 h, time 3 day): 4.8%
PT (72 h, time 3 day): 15.1 s
Plat (72 h, time 3 day): 111.5 x10_4/uL
RBC (72 h, time 3 day): 472.2 x10_4/ul
Ret (72 h, time 3 day): 11%
WBC (72 h, time 3 day): 175.1 x10_2/uL
KIDNEY_L (72 h, time 3 day): 0.9 g
KIDNEY_R (72 h, time 3 day): 1 g
KIDNEY_TOTAL (72 h, time 3 day): 1.9 g
ALP (72 h, time 3 day): 841.6 IU/L
ALT (72 h, time 3 day): 34.4 IU/L
AST (72 h, time 3 day): 59.4 IU/L
BUN (72 h, time 3 day): 16.2 mg/dL
CRE (72 h, time 3 day): 0.1 mg/dL
DBIL (72 h, time 3 day): 0 mg/dL
GLC (72 h, time 3 day): 171 mg/dL
IP (72 h, time 3 day): 7.9 mg/dL
K (72 h, time 3 day): 4.5 meq/L
LDH (72 h, time 3 day): 122.6 IU/L
Na (72 h, time 3 day): 140.8 meq/L
PL (72 h, time 3 day): 147.2 mg/dL
RALB (72 h, time 3 day): 2.4 g/dL
TBIL (72 h, time 3 day): 0.004 mg/dL
TC (72 h, time 3 day): 86 mg/dL
TG (72 h, time 3 day): 116.2 mg/dL
TP (72 h, time 3 day): 4.8 g/dL
gamma-GTP (72 h, time 3 day): 1.6 IU/L
TERMINAL_BW ([…], time 7 day): 228.5 g
TERMINAL_BW ([…], time 14 day): 217 g
TERMINAL_BW ([…], time 28 day): 319 g
APTT ([…], time 7 day): 20.3 s
Bas ([…], time 7 day): 0%
Eos ([…], time 7 day): 1.4%
Fbg ([…], time 7 day): 360.2 mg/dL
Hb ([…], time 7 day): 9.5 g/dL
Ht ([…], time 7 day): 29.8%
Lym ([…], time 7 day): 65.6%
MCH ([…], time 7 day): 21.1 pg
MCV ([…], time 7 day): 66.4 fL
Mono ([…], time 7 day): 3.6%
PT ([…], time 7 day): 16.4 s
Plat ([…], time 7 day): 198 x10_4/uL
RBC ([…], time 7 day): 450 x10_4/ul
Ret ([…], time 7 day): 20.9%
WBC ([…], time 7 day): 213.7 x10_2/uL
APTT ([…], time 14 day): 18.9 s
Bas ([…], time 14 day): 0%
Eos ([…], time 14 day): 1.2%
Fbg ([…], time 14 day): 455.2 mg/dL
Hb ([…], time 14 day): 6.4 g/dL
Ht ([…], time 14 day): 23.2%
Lym ([…], time 14 day): 56.6%
MCH ([…], time 14 day): 17.8 pg
MCHC ([…], time 14 day): 27.3%
MCV ([…], time 14 day): 65.3 fL
Mono ([…], time 14 day): 5%
PT ([…], time 14 day): 16.5 s
Plat ([…], time 14 day): 274.3 x10_4/uL
RBC ([…], time 14 day): 354.6 x10_4/ul
Ret ([…], time 14 day): 36.9%
WBC ([…], time 14 day): 225.9 x10_2/uL
APTT ([…], time 28 day): 19.1 s
Bas ([…], time 28 day): 0%
Eos ([…], time 28 day): 2.2%
Fbg ([…], time 28 day): 434.8 mg/dL
Hb ([…], time 28 day): 7.6 g/dL
Lym ([…], time 28 day): 48.8%
MCH ([…], time 28 day): 17.5 pg
MCHC ([…], time 28 day): 28%
MCV ([…], time 28 day): 62.7 fL
Mono ([…], time 28 day): 3%
PT ([…], time 28 day): 16.6 s
Plat ([…], time 28 day): 195.7 x10_4/uL
RBC ([…], time 28 day): 433.5 x10_4/ul
WBC ([…], time 28 day): 190.5 x10_2/uL
KIDNEY_L ([…], time 7 day): 1 g
KIDNEY_R ([…], time 7 day): 1 g
KIDNEY_TOTAL ([…], time 7 day): 2.1 g
KIDNEY_L ([…], time 14 day): 1 g
KIDNEY_R ([…], time 14 day): 1.1 g
KIDNEY_TOTAL ([…], time 14 day): 2.1 g
KIDNEY_L ([…], time 28 day): 1.4 g
KIDNEY_R ([…], time 28 day): 1.4 g
KIDNEY_TOTAL ([…], time 28 day): 2.8 g
ALP ([…], time 7 day): 793 IU/L
AST ([…], time 7 day): 63 IU/L
BUN ([…], time 7 day): 18.6 mg/dL
CRE ([…], time 7 day): 0.2 mg/dL
DBIL ([…], time 7 day): 0 mg/dL
GLC ([…], time 7 day): 179.6 mg/dL
IP ([…], time 7 day): 7.8 mg/dL
K ([…], time 7 day): 4.3 meq/L
LDH ([…], time 7 day): 145 IU/L
Na ([…], time 7 day): 140.4 meq/L
PL ([…], time 7 day): 161.6 mg/dL
RALB ([…], time 7 day): 2.7 g/dL
TBIL ([…], time 7 day): 0.002 mg/dL
TC ([…], time 7 day): 84 mg/dL
TG ([…], time 7 day): 148.6 mg/dL
TP ([…], time 7 day): 5.1 g/dL
gamma-GTP ([…], time 7 day): 2 IU/L
ALP ([…], time 14 day): 502.2 IU/L
ALT ([…], time 14 day): 25.6 IU/L
AST ([…], time 14 day): 55.2 IU/L
BUN ([…], time 14 day): 15.4 mg/dL
CRE ([…], time 14 day): 0.2 mg/dL
Ca ([…], time 14 day): 10.2 mg/dL
DBIL ([…], time 14 day): 0 mg/dL
GLC ([…], time 14 day): 159.6 mg/dL
IP ([…], time 14 day): 8.4 mg/dL
K ([…], time 14 day): 4.4 meq/L
LDH ([…], time 14 day): 145.8 IU/L
Na ([…], time 14 day): 140.4 meq/L
PL ([…], time 14 day): 167.4 mg/dL
RALB ([…], time 14 day): 2.2 g/dL
TBIL ([…], time 14 day): 0.004 mg/dL
TC ([…], time 14 day): 81.2 mg/dL
TG ([…], time 14 day): 239.2 mg/dL
TP ([…], time 14 day): 4.8 g/dL
gamma-GTP ([…], time 14 day): 2.6 IU/L
ALP ([…], time 28 day): 493.2 IU/L
ALT ([…], time 28 day): 30 IU/L
AST ([…], time 28 day): 64 IU/L
BUN ([…], time 28 day): 18 mg/dL
CRE ([…], time 28 day): 0.2 mg/dL
Ca ([…], time 28 day): 10.4 mg/dL
DBIL ([…], time 28 day): 0 mg/dL
GLC ([…], time 28 day): 164.2 mg/dL
IP ([…], time 28 day): 7 mg/dL
K ([…], time 28 day): 4.2 meq/L
LDH ([…], time 28 day): 158.8 IU/L
Na ([…], time 28 day): 141.2 meq/L
PL ([…], time 28 day): 191.5 mg/dL
RALB ([…], time 28 day): 2.4 g/dL
TBIL ([…], time 28 day): 0 mg/dL
TC ([…], time 28 day): 95 mg/dL
TG ([…], time 28 day): 283.8 mg/dL
TP ([…], time 28 day): 5.1 g/dL
gamma-GTP ([…], time 28 day): 4.2 IU/L
